Reference: ChEMBL document CHEMBL1201862, “PubChem BioAssay data set” (2004)
Activity calls are given as the source filed them.

Experiments:
[1] = HGIII-sPLA2 enzyme inhibition potency – biochemical, QFRET, IC50, dose response (AID 743457);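 note: green fluorescence rise as the enzyme cleaves BODIPY PC-A2 in liposomes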
[2] = molecular target: Long-chain-fatty-acid--AMP ligase FadD28 (Mycobacterium tuberculosis, UniProt P9WQ59); assay: Fluorescence polarization aasay to screen for inhibitors that compete for the binding of FadD28 to a bisubstrate Measured in Biochemical System Using Plate Reader - 2147-01_Inhibitor_Dose_CherryPick_Activity.; assay type: functional, Mycobacterium tuberculosis H37Rv
Long-chain-fatty-acid--AMP ligase FadD28, sequence (P9WQ59 whole entry, the tested form may be a part): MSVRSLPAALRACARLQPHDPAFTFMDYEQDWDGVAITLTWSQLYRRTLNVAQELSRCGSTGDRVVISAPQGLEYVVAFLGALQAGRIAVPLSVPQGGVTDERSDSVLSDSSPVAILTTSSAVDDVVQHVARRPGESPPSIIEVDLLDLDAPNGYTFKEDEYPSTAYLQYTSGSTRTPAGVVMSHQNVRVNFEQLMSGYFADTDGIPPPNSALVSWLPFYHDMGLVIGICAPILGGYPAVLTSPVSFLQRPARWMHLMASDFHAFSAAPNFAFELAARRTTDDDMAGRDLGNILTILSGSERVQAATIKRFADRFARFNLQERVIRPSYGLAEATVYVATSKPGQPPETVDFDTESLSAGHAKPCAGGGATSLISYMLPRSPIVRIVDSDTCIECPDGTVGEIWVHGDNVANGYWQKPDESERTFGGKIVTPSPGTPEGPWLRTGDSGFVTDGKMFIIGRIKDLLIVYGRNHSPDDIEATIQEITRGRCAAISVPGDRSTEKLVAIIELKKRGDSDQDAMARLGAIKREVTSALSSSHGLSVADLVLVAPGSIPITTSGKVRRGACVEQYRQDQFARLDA

[3] = blockers of HIV-1 envelope-mediated cell-cell fusion – cherry-pick, dose response (AID 652057); assay type: functional, cell-based
[4] = blockers of HIV-1 ZM109 envelope-driven cell-cell fusion – HeLa effector, CEM target cells, luciferase, cherry-pick, dose response (AID 652058); assay type: functional, cell-based;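 note: luciferase signal from HIV-1 Env mediated cell-cell fusion of effector and target cells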
[5] = viability loss in CEM21 cells – cell-based, CellTiter-Glo luminescence, cherry-picked, cytotoxicity control for viral fusion inhibitor project, dose response (AID 652042); assay type: functional;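 note: potency for signal decrease meaning cytotoxicity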
[6] = HIV-1 AD8 envelope cell-cell fusion blockers – cherry-pick, dose response (AID 652062); assay type: functional, cell-based;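 note: luciferase signal from cell-cell fusion driven by HIV-1 clade B AD8 Env; potency is for inhibitors of fusion seen as a drop in luminescence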
[7] = off-target signal loss in HeLa-CEM21 co-culture – HeLa F-luc CTL cells, cherry-picked, counter-screen for HIV-1 Env fusion inhibitor project, dose response (AID 652040); assay type: functional, cell-based;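 note: potency for signal decrease marking cytotoxic or nonspecific inhibition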
[8] = blockers of bursicon-stimulated LGR2 cAMP reporter – cell-based, HEK293, CRE-luciferase reporter, cherry pick, set 2, dose response (AID 743343); assay type: functional;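 note: transfected cells were stimulated with diluted bursicon conditioned medium after compound addition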
[9] = A549 cell cytotoxicity, dose response, cytotoxicity control, plate reader, cherry-pick, antagonist series (AID 743412); assay type: functional, cell-based
[10] = blockade of melanocortin 4 receptor signaling – cell-based, plate reader, cherry pick, counter-screen for LGR2 antagonist project, dose response (AID 743444); assay type: functional;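 note: transfected HEK 293 cells stimulated with alpha-MSH peptide; potency of inhibitors of the alpha-MSH evoked signal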
[11] = molecular target: Histone-lysine N-methyltransferase NSD2 (Homo sapiens, UniProt O96028); assay type: biochemical
Histone-lysine N-methyltransferase NSD2, sequence (O96028 whole entry): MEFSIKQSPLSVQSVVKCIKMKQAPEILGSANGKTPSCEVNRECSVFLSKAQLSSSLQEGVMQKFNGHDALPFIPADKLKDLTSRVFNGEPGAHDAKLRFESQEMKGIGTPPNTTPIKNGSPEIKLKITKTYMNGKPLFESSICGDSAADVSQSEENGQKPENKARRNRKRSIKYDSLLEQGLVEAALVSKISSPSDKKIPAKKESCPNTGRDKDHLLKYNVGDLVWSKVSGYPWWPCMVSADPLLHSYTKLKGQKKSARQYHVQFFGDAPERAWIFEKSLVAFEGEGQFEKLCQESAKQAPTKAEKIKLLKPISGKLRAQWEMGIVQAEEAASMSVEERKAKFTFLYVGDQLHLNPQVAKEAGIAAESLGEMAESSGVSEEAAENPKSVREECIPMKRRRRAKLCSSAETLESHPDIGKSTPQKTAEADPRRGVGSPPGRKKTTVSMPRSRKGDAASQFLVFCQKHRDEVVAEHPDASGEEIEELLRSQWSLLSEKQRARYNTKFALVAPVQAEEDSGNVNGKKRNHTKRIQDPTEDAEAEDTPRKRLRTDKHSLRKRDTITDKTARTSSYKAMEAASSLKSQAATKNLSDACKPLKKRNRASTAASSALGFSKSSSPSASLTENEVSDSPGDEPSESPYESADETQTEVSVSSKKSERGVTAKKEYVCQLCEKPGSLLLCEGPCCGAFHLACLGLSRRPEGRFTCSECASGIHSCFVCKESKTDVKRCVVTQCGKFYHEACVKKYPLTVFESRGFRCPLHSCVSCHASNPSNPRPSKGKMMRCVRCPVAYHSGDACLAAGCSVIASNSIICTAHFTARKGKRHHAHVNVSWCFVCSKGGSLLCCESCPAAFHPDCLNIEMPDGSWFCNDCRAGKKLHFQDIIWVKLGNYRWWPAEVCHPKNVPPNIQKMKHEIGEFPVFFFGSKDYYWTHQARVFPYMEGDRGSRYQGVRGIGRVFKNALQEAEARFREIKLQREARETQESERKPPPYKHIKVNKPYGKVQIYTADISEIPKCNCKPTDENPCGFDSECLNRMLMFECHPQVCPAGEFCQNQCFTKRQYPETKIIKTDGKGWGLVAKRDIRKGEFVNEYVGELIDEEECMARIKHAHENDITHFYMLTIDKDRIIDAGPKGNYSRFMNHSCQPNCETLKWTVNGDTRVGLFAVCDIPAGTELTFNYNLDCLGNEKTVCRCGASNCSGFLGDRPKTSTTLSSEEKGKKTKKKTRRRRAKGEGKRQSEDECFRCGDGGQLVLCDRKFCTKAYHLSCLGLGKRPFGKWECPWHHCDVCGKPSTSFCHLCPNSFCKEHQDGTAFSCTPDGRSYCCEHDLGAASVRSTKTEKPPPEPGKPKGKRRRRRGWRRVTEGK

Protein RecA = molecular target: T1, Protein RecA (Mycobacterium tuberculosis, UniProt P9WHJ3); assay: Fluorescence Cell-Free Homogeneous Dose Retest to Identify Inhibitors of RecA-Intein Splicing Activity. [Related pubchem assays (depositor defined):AID2097, AID2223, AID489010, AID492950]; assay type: functional
T1 sequence (P9WHJ3 whole entry): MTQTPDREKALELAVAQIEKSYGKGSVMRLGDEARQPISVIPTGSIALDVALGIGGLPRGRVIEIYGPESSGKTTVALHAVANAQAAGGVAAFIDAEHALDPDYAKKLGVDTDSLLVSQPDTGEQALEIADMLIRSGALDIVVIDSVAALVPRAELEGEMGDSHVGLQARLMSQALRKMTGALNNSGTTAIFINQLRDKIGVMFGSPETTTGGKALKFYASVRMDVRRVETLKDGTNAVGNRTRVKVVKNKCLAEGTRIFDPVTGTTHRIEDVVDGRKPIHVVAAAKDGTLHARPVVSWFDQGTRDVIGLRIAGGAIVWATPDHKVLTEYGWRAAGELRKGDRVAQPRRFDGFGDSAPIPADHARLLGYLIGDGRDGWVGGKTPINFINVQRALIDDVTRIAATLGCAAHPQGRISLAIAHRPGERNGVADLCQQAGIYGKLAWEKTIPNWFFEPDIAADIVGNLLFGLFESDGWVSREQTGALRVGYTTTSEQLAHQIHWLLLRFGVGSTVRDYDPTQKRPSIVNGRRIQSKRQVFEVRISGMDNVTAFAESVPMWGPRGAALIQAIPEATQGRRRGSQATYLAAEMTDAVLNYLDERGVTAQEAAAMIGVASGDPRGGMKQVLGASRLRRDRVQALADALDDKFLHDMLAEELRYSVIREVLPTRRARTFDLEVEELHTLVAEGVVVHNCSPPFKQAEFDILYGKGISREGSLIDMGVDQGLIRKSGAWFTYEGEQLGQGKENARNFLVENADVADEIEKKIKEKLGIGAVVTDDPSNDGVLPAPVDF

[12] = molecular target: Induced myeloid leukemia cell differentiation protein Mcl-1 (Homo sapiens, UniProt Q07820); assay type: functional
Induced myeloid leukemia cell differentiation protein Mcl-1, sequence (Q07820 whole entry, the tested form may be a part): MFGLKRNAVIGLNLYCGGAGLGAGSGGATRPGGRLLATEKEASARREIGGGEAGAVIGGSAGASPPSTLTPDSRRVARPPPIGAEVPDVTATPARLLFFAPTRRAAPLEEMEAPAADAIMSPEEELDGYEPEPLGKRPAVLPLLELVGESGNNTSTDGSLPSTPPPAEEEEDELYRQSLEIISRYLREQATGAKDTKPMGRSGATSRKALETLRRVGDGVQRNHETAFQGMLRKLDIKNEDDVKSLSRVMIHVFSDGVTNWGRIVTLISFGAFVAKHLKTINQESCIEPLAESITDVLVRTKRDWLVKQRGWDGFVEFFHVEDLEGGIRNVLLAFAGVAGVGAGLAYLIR

[13] = molecular target: Arf-GAP with SH3 domain, ANK repeat and PH domain-containing protein 1 (Homo sapiens, UniProt Q9ULH1); assay type: functional;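 note: biochemical fluorescence polarization dose–response screen measuring inhibition of ASAP1; ASAP1 GAP domain stimulating GTP hydrolysis by truncated human ARF1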
Arf-GAP with SH3 domain, ANK repeat and PH domain-containing protein 1, sequence (Q9ULH1 whole entry, the tested form may be a part): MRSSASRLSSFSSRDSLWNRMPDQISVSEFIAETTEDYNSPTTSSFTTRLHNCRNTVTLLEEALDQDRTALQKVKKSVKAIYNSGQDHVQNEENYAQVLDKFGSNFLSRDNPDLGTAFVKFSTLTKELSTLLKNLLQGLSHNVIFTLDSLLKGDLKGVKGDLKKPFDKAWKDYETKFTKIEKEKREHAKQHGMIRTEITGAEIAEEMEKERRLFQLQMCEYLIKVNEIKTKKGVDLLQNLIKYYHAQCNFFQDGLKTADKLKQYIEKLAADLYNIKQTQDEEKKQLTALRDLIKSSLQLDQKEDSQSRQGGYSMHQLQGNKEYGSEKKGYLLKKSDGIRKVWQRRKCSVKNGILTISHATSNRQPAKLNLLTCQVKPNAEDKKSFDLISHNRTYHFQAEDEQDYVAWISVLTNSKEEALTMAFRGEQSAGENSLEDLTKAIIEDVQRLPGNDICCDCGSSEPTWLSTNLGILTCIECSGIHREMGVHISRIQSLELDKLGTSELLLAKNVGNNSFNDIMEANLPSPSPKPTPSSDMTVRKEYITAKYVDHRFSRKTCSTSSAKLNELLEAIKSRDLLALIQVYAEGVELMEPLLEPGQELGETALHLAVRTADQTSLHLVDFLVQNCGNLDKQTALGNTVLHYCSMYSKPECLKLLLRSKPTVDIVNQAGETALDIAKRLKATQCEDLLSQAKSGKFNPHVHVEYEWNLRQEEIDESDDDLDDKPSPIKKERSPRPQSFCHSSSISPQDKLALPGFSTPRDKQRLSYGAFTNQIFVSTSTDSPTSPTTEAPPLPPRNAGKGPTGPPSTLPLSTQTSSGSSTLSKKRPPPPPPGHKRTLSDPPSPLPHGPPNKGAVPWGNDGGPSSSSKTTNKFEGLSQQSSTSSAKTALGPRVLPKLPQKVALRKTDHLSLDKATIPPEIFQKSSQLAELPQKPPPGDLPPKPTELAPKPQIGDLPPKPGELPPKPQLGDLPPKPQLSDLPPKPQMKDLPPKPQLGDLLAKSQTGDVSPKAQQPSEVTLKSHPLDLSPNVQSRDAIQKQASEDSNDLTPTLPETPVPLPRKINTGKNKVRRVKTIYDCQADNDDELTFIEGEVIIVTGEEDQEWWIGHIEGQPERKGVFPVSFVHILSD

[14] = molecular target: T2, Tyrosine-protein phosphatase non-receptor type 22 (Homo sapiens, UniProt Q9Y2R2); assay: lymphoid phosphatase LYP inhibitors – biochemical, selectivity assay for STEP inhibitor project, dose response (AID 624241); assay type: functional
T2 sequence (Q9Y2R2 whole entry): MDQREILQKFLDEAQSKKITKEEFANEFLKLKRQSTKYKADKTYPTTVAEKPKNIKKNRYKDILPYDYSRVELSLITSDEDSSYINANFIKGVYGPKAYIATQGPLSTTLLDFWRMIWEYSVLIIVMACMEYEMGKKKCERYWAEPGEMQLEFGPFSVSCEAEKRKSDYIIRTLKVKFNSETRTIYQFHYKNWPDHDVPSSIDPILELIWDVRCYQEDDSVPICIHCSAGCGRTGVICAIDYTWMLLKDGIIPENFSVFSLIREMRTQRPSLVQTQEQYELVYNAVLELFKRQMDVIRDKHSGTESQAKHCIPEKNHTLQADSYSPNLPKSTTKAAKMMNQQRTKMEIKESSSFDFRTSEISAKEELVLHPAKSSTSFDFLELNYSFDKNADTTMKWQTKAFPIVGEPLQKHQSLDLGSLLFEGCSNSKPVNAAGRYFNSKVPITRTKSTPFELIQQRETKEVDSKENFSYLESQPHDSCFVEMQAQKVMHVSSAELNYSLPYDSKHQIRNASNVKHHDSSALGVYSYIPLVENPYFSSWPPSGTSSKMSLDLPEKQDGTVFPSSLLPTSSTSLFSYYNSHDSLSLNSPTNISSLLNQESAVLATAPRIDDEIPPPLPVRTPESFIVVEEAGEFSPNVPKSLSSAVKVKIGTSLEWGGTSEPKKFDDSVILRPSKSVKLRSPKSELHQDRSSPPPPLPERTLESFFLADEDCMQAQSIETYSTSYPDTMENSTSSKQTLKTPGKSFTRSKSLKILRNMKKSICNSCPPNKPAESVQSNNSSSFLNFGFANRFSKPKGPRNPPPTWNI

[15] = molecular target: Dual specificity protein phosphatase 3 (Homo sapiens, UniProt P51452); assay: VHR phosphatase inhibition, dose response, selectivity assay for STEP inhibitor project, biochemical (AID 602374); assay type: functional; conditions: read-out: IC50_Mean
Dual specificity protein phosphatase 3, sequence (P51452 whole entry): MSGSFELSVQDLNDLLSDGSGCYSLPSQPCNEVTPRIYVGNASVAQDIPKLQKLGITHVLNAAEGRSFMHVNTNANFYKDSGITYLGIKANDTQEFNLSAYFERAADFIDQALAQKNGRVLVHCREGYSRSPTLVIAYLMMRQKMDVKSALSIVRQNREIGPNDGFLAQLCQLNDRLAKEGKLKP

[16] = molecular target: Tyrosine-protein phosphatase non-receptor type 11 (Homo sapiens, UniProt Q06124); assay: PTPN11 enzyme inhibitors – biochemical, selectivity assay for STEP inhibitor project, dose response (AID 602367); assay type: functional; conditions: read-out: IC50_Mean
Tyrosine-protein phosphatase non-receptor type 11, sequence (Q06124 whole entry, the tested form may be a part): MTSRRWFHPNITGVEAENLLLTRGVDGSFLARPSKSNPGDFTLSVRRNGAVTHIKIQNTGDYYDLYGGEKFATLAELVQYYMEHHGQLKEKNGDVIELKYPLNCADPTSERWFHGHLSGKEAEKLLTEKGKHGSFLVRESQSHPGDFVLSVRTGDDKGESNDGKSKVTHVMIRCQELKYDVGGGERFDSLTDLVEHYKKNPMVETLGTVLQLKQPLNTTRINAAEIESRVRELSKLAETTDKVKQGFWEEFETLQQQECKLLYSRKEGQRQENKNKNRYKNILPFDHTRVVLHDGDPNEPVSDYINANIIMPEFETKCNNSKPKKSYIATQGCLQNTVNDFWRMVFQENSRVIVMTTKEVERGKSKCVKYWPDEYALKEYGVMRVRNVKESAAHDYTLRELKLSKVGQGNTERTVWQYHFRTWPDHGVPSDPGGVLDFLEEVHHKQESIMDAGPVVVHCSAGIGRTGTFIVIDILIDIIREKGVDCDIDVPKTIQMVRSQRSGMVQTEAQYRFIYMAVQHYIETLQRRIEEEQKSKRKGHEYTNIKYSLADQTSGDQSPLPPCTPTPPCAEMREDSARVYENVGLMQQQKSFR

[17] = molecular target: T3, Carboxy-terminal domain RNA polymerase II polypeptide A small phosphatase 1 (Homo sapiens, UniProt Q9GZU7); assay: CTDSP1 inhibitors, concentration-response, biochemical, absorbance readout, ultra-high-throughput screen actives (AID 540297); assay type: functional
T3 sequence (Q9GZU7 whole entry): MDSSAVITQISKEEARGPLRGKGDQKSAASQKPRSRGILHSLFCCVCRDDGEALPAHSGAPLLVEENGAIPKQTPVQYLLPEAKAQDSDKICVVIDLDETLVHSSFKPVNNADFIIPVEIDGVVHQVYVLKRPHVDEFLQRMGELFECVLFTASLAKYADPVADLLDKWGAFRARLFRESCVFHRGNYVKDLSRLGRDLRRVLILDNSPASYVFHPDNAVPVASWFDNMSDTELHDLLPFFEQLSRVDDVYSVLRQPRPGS

[18] = molecular target: Tyrosine-protein phosphatase non-receptor type 5 (Homo sapiens, UniProt P54829); assay: PTPN5 enzyme inhibition – biochemical, fluorescence intensity, uHTS hits, confirmation (AID 602372); assay type: functional; conditions: read-out: IC50_Mean
Tyrosine-protein phosphatase non-receptor type 5, sequence (P54829 whole entry): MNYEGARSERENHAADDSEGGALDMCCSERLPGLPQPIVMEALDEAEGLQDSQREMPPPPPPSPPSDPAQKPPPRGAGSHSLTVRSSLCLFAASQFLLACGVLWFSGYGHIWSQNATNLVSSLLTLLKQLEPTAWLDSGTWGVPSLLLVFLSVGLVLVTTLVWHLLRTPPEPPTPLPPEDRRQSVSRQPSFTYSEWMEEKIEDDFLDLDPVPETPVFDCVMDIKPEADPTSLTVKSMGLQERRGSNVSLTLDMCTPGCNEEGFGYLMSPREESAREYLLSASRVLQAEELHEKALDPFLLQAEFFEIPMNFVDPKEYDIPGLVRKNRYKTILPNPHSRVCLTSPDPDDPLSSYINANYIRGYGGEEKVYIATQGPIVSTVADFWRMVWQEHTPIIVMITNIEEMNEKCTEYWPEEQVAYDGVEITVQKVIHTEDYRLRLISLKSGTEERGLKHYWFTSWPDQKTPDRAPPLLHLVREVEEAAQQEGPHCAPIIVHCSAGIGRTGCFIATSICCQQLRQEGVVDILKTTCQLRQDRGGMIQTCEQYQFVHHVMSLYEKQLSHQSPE

## O=C(NNc1nc2cc3c(cc2s1)OCO3)c1ccc(F)cc1
[1]
  IC50: > 122 µM (inactive)

## Cc1ccc(CSCCNC(=O)c2ccc(N(C)S(=O)(=O)c3ccccc3)cc2)cc1
[2]
  AC50: 7.13 µM (active)

## Cc1ccc2nc(NC(=O)C3CCN(S(=O)(=O)c4cccs4)CC3)sc2c1
[3]
  AC50: 46.5 µM (active)
[4]
  AC50: 13.9 µM (active)
[5]
  AC50: 69.6 µM (active)
[6]
  AC50: 3.05 µM (active)
[7]
  AC50: > 70 µM (inactive)

## O=C(NCCc1ccc(Cl)cc1)c1ccc2c(c1)OCCO2
[8]
  AC50: 20.1 µM (active)
[9]
  AC50: > 52 µM (inactive)
[10]
  AC50: 21.2 µM (active)

## CCOC(=O)C1CCN(c2nc(N)c3c(N)nc(SCC(=O)O)cc3c2C#N)CC1
[11]
  AC50: 6.04 µM (active)
Protein RecA
  EC50: > 380 µM (inactive)
[12]
  IC50: 4.87 µM (active)

## COc1cc(/C=C2/SC(N)=NC2=O)ccc1Oc1ccc([N+](=O)[O-])cc1[N+](=O)[O-]
[13]
  IC50: 54.9 µM (inactive)

## CCOC(=O)CN1C(=O)S/C(=C/c2ccc(OCc3ccc(C(=O)O)cc3)cc2)C1=O
[14]
  IC50: 50.6 µM (inactive)
[15]
  IC50: 4.27 µM (active)
[16]
  IC50: 3.24 µM (active)
[17]
  IC50: 3.74 µM (active)
[18]
  IC50: 25.4 µM (inactive)
